Results published in ChEMBL document CHEMBL1201862, “PubChem BioAssay data set” (2004).
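Each compound was tested at five concentrations against cells in 96-well plates for 48 hours. GI50 marks 50% less growth.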 Active and inactive are the calls of the source. Rule as the data show it: active = GI50 up to about 1.1 µM and inactive = higher.

What was measured:
Assay in all cases: NCI tumour cell line growth inhibition, 48 h
[1] = tested on: 786-0
[2] = tested on: A498
[3] = tested on: CAKI-1
[4] = tested on: CCRF-CEM
[5] = tested on: HL-60
[6] = tested on: HOP-92
[7] = tested on: KM12
[8] = tested on: MOLT-4
[9] = tested on: NCI-H226
[10] = tested on: NCI/ADR-RES
[11] = tested on: OVCAR-5
[12] = tested on: SF-268
[13] = tested on: SK-MEL-28
[14] = tested on: SK-OV-3
[15] = tested on: SN12C
[16] = tested on: TK-10
[17] = tested on: UACC-257
[18] = tested on: UO-31
[19] = tested on: SR

Measured: GI50

CN(C)CC/C=C1\c2ccccc2Sc2ccc(Cl)cc21
inactive: [1] 12.2 µM | [2] 14.3 µM | [3] 8.11 µM | [4] 8.2 µM | [5] 11.2 µM | [6] 4.75 µM | [7] 21 µM | [8] 11.5 µM | [9] 18.6 µM | [10] 13.8 µM | [11] 13.9 µM | [12] 14.1 µM | [13] 6.21 µM | [14] 16.3 µM | [15] 15.2 µM | [16] 14.5 µM | [17] 6.87 µM | [18] 9.4 µM

CCOP(=O)(OCC)C(Cc1ccccc1)N=C(c1ccccc1)c1ccccc1 (centres undefined)
inactive: [1] 15.2 µM | [3] 16.2 µM | [4] 9.95 µM | [5] 16.3 µM | [6] 13.6 µM | [7] 15.5 µM | [8] 4.93 µM | [9] 14.2 µM | [10] 10.1 µM | [11] 14.4 µM | [12] 17.8 µM | [13] 17 µM | [14] 15.2 µM | [15] 16.7 µM | [19] 17.9 µM | [16] 11.5 µM | [17] 13.7 µM | [18] 11.5 µM

CCOP(=O)(OCC)C(C)(C)OC(=O)NC(F)(F)F
inactive: [1] > 100 µM | [3] > 100 µM | [4] > 100 µM | [5] > 100 µM | [7] > 100 µM | [8] > 100 µM | [9] 12.7 µM | [10] > 100 µM | [11] > 100 µM | [12] > 100 µM | [13] > 100 µM | [14] > 100 µM | [15] > 100 µM | [19] > 100 µM | [16] > 100 µM | [17] > 100 µM | [18] > 100 µM

c1cc(CSP234N5CCN2CCN3CCN4CC5)cc(CSP234N5CCN2CCN3CCN4CC5)c1
inactive: [1] > 100 µM | [3] > 100 µM | [4] 16.5 µM | [5] 3.56 µM | [6] 21.5 µM | [7] 19.5 µM | [8] 15.7 µM | [10] 57.4 µM | [11] 86.7 µM | [12] 29.4 µM | [13] 18.8 µM | [15] 58.6 µM | [19] 4.91 µM | [16] 26.3 µM | [17] 17 µM | [18] 13.9 µM
